Test results as given in article PMC6433232, “Targeting mitochondria in cancer therapy could provide a basis for the selective anti-cancer activity” (PLoS ONE, 2019).

Test system: primary acute myeloid leukemia (AML) cells obtained from patients
Experiment: Kinase inhibitor library screening with and without NSC130362, primary AML cells
Format: cell-based, Human
Settings: ratio of EC50 for inhibitor to EC50 for inhibitor/NSC130362 combination, NSC130362 10 μM

Row | Structure (SMILES) | EC50 decrease, fold (Screen N 1) [fold] | EC50 decrease, fold (Screen N 2) [fold] | EC50 decrease, fold (Screen N 3) [fold]
1 | N[C@@H]1CCCN(c2c(Br)cnc3[nH]cc(NC(=O)C4CC4)c23)C1 [GDC-0575] | – | 1.0 | –
2 | OCCn1cc(-c2ccc3c(c2)CC/C3=N\O)c(-c2ccncc2)n1 [GDC-0879] | 0.9 | 1.0 | 952.6
3 | Cn1nccc1Nc1nccc(-c2ccn([C@H](CO)c3ccc(Cl)c(F)c3)c(=O)c2)n1 [GDC-0994] | – | 1.0 | –
4 | CC[C@H](Nc1ncnc2[nH]cnc12)c1nc2cccc(F)c2c(=O)n1-c1ccccc1 [GS-1101 (CAL-101)] | 506.3 | 1.0 | 356.4
5 | CCn1c(-c2nonc2N)nc2c(C#CC(C)(C)O)ncc(OC[C@H]3CCCNC3)c21 [GSK690693] | 0.165 | 1.0 | 1.1
6 | CCc1cc(Nc2nccc(-c3c(-c4ccc(OC)c(C(=O)Nc5c(F)cccc5F)c4)nc4ccccn34)n2)c(OC)cc1N1CCC(N2CCN(S(C)(=O)=O)CC2)CC1 [GSK-1904529A] | 41.6 | 1.0 | 44.8
7 | CCc1nc(C(N)=O)c(Nc2ccc(N3CCC(N4CCN(C)CC4)CC3)c(OC)c2)nc1NC1CCOCC1 [Gilteritinib (ASP-2215)] | 0.2 | – | 1.3
8 | CC(C)n1nc(-c2ccc3oc(N)nc3c2)c2c(N)ncnc21 [INK-128] | 0.0632 | 0.9 | 0.0858
9 | Cc1ccc2nc(NC(=O)CSc3nc4c(c(=O)n3-c3ccccc3)SCC4)sc2c1 [IWP2] | – | 1.0 | –
10 | O=C(Nc1cccc2cccnc12)c1ccc(N2C(=O)[C@@H]3[C@H](C2=O)[C@@H]2C=C[C@H]3C2)cc1 [IWR1] | – | 1.0 | –
11 | CC(C)NC[C@@H](C(=O)N1CCN(c2ncnc3c2[C@H](C)C[C@H]3O)CC1)c1ccc(Cl)cc1 [Ipatasertib (GDC-0068)] | – | 1.0 | –
12 | Nc1nc(Nc2ccc(S(N)(=O)=O)cc2)nn1C(=O)c1c(F)cccc1F [JNJ-7706621] | 3.7 | 1.0 | 0.182
13 | Cn1cc(-c2ccc3nnc(C(F)(F)c4ccc5ncccc5c4)n3n2)cn1 [JNJ-38877605] | 7.6 | 1.0 | 0.00829
14 | O=c1cc(-c2cccc3c2Sc2ccccc2S3)oc(N2CCOCC2)c1 [KU-55933] | 0.222 | 1.0 | 959.3
15 | O=C(c1ccc(/C=C/c2n[nH]c3ccccc23)cc1)N1CCNCC1 [KW-2449] | 1.6 | 1.0 | 0.9
16 | CN(C)C[C@@H]1CCn2cc(c3ccccc32)C2=C(C(=O)NC2=O)c2cn(c3ccccc23)CCO1 [LY-333531] | 3.3 | 1.0 | 1.1
17 | CS(=O)(=O)CCNCc1ccc(-c2ccc3ncnc(Nc4ccc(OCc5cccc(F)c5)c(Cl)c4)c3c2)o1 [Lapatinib] | – | 1.0 | –
18 | Nc1cccc2c1CN(C1CCC(=O)NC1=O)C2=O (stereo not shown) [Lenalidomide] | – | – | 1.4
19 | CC[C@H](C)C(=O)O[C@H]1C[C@@H](C)C=C2C=C[C@H](C)[C@H](CC[C@@H]3C[C@@H](O)CC(=O)O3)[C@H]21 [Lovastatin] | – | – | 1.0
20 | NC1(c2ccc(-c3nc4ccn5c(=O)[nH]nc5c4cc3-c3ccccc3)cc2)CCC1 [MK-2206] | 15.9 | 1.0 | 1.0

Further lines, results first:

Row | EC50 decrease, fold (Screen N 1) [fold] | EC50 decrease, fold (Screen N 2) [fold] | EC50 decrease, fold (Screen N 3) [fold] | Structure (SMILES)
21 | 0.666 | 1.0 | 2.2 | COc1cc2c(Oc3ccc(NC(=O)C4(C(=O)Nc5ccc(F)cc5)CC4)cc3F)ccnc2cc1OCCCN1CCOCC1 [Foretinib (XL880)]
22 | 257.7 | 1.0 | 522.0 | CNC(=O)c1c(F)cccc1Nc1nc(Nc2cc3c(cc2OC)CCN3C(=O)CN(C)C)nc2[nH]ccc12 [GSK-1838705A]
23 | – | 1.0 | – | COc1ccc(COc2ccc(Cc3cnc(N)nc3N)cc2OC)cc1 [GW-2580]
24 | – | 1.0 | – | COc1cc(C(=O)O)ccc1NC(=O)[C@@H]1N[C@@H](CC(C)(C)C)[C@](C#N)(c2ccc(Cl)cc2F)[C@H]1c1cccc(Cl)c1F [Idesanutlin]
25 | 0.3 | 1.0 | 2.3 | CN(C)CC(=O)N1CCC(c2ccc(NC(=O)c3nc(C#N)c[nH]3)c(C3=CCCCC3)c2)CC1 [JNJ-28312141]
26 | 0.6 | 1.0 | 1.0 | COc1cc(Oc2ccnc3cc(OC)c(OC)cc23)ccc1NC(=O)NC(C)c1nccs1 (stereo not shown) [KI20227]
27 | – | 1.0 | – | Cc1cc(-c2ncc(CC(=O)Nc3ccc(-c4cnccn4)cn3)cc2C)ccn1 [LGK974]
28 | 1.9 | 1.0 | 1.5 | COc1cc2nccc(Oc3ccc(NC(=O)NC4CC4)c(Cl)c3)c2cc1C(N)=O [Lenvatinib]
29 | 261.0 | 1.4 | 1.0 | Cc1ccc(F)c(NC(=O)Nc2ccc(-c3cccc4[nH]nc(N)c34)cc2)c1 [Linifanib (ABT-869)]
30 | 6.0 | 1.0 | 97.6 | COCCNCc1ccc(-c2cc3nccc(Oc4ccc(NC(=S)NC(=O)Cc5ccc(F)cc5)cc4F)c3s2)nc1 [MGCD-265]
31 | 6.2 | 1.0 | 121.2 | COc1c(Cl)cc2c([nH]c3cnccc32)c1NC(=O)c1cccnc1C [MLN120B]
